In US20100222421A1, “Usage of Baicalein in the Preparation of a Pharmaceutical Composition for the Treatment of Traumatic Brain Injury” (National Defense Medical Center, priority 2009, published 2010):

System: rats with controlled cortical impact (CCI) injury
Test: Cortical contusion volume, cresyl violet staining
Type: in vivo, rat
Description: A previously described CCI injury procedure was utilized (Chen et al., 2003). Male Sprague-Dawley rats, which have body weight of 250-300 g, were anaesthetized with sodium pentobarbital (i.p.; 50 mgkg^−1; Rhone Merieux, Harlow, UK) and placed in a stereotaxic frame. A 5-mm craniotomy was performed over the left parietal cortex, centered on the coronal suture and 3 mm lateral to the sagittal suture. Considerable care was taken to avoid injury to the underlying dura. Injury was made using a pneumatic piston with a rounded metal tip (2.5 mm diameter) that was angled 22.5° C. to the vertical so that the tip was perpendicular with the brain surface at the centre of the craniotomy. A velocity of 4 ms^−1 and a deformation depth 2 mm below the dura were used. The bone flap was immediately replaced and sealed, and the scalp was closed with sutures. Body temperature was monitored throughout the surgery by a rectal probe; temperature was maintained at 37.0±0.5° C. using a heated pad. Rats were placed in a heated cage to maintain body temperature, while recovering from anaesthesia. Baicalein (30 mg kg^−1) dissolved in 10% dimethyl sulphoxide (0.25-0.3 mL) or a corresponding volume of vehicle (10% dimethyl sulphoxide) was administered i.p. immediately following injury or daily for 4 days (immediately, 25, 49 and 73 h) after injury. Behaviour testing using the rotarod, tactile adhesive removal, mNSS and beam walk tests was performed at 28 hours as well as 4, 7, 14, 21 and 28 days post-injury. At 14 and 28 days, the animals were killed, perfused intravascularly and their brains were processed with cresyl violet staining to assess contusion volume (n=8 for each group). […] Following with terminal anaesthesia, rats were killed by transcardial perfusion first with phosphate-buffered saline (PBS) and then with 4% paraformaldehyde and their tissues were processed on day 1 (for FJB staining and cytokine immunohistochemistry), day 14 (for cresyl violet histology) and day 28 (for cresyl violet histology), post-injury. All solutions were maintained at pH 7.4 and 4° C. Brains were removed and post-fixed in 4% paraformaldehyde overnight and transferred to PBS containing 30% sucrose and 0.1% sodium azide, manufactured by Sigma Chemical Co. located at St Louis, Mo., USA, for cryoprotection. Coronal sections were cut in a cryostat at […] from the level of the olfactory bulbs to the visual cortex. Every 50th slice was used for cresyl violet histology, FJB staining or immunohistochemistry. The distance between similarly stained sections within each group was thus […], with approximately 20 sections per group. […] To measure contusion volumes, cresyl violet-stained sections were digitized and analyzed using a ×1.5 objective and computer image analysis system (Scion Image, Beta Release 4.0.2; Scion Corp., Frederick, Md., USA). […] Contusion area was calculated from all images of cresyl violet-stained sections that contained contused brain; volume measurement was computed by summation of areas multiplied by interslice distance (500 μm).

## O=c1cc(-c2ccccc2)oc2cc(O)c(O)c(O)c12 [baicalein]
30 mg kg^-1 i.p., days 14 and 28, P>0.05
  contusion volume, single-dose versus multiple-dose groups: no significant difference
Multiple doses 30 mg kg^-1 i.p. daily for 4 days, 14 days post-injury
  reduction of contusion volume versus vehicle: 42%
Multiple doses 30 mg kg^-1 i.p. daily for 4 days, 28 days post-injury
  reduction of contusion volume versus vehicle: 42%
Single dose 30 mg kg^-1 i.p., 14 days post-injury
  reduction of contusion volume versus vehicle: 32%
Single dose 30 mg kg^-1 i.p., 28 days post-injury
  reduction of contusion volume versus vehicle: 34%
